Tests used:
[1] = system: high cardiovascular risk patients with hypercholesterolemia; assay: ODYSSEY COMBO II: lipid efficacy of alirocumab vs ezetimibe, add-on to maximally tolerated statin; assay type: in vivo, human; conditions: for Calculated LDL-C percent change from baseline, LS mean (SE): ITT population, MMRM, alirocumab 75 Q2W/Up150 Q2W, ezetimibe 10
Excerpt: Each of the COMBO studies was randomized, double-blinded, and placebo-controlled.
The primary efficacy endpoint for each study was the difference between treatment arms in the percent change in LDL-C from baseline to Week 24.
Apo, apolipoprotein; HDL-C, high-density lipoprotein cholesterol; ITT, intent-to-treat; LDL-C, low-density lipoprotein cholesterol; Lp(a), lipoprotein (a); TG, triglycerides.
COMBO II was a Phase 3, randomized, double-blind, active-controlled, parallel-group, multinational 104-week study. The study enrolled high-risk patients with uncontrolled hypercholesterolemia on stable, maximally tolerated daily statin therapy. Unlike COMBO I, with a placebo arm, COMBO II incorporated an active-treatment arm (ezetimibe) with double-dummy design (FIG. 1B) and patients were not allowed to receive any other lipid lowering therapies besides statin and their randomized treatment.
After randomization, patients entered a double-blind, double-dummy treatment period of 104 weeks.
Primary analyses of efficacy endpoints were conducted using an ITT approach (based on the ITT population defined above), including all lipid data, regardless of whether the patient was continuing therapy or not. This corresponds to ITT estimands, defined for primary and key secondary endpoints. In addition, analyses were also conducted using an on-treatment approach (based on the mITT population defined above), including lipid data collected during the efficacy treatment period. This corresponds to on-treatment estimands of key secondary endpoints.
With regards to the primary efficacy analysis (ITT approach), the percent change in calculated LDL-C from baseline to Week 24 was analyzed using a mixed-effect model with repeated measures (MMRM) approach.

[2] = system: high cardiovascular risk patients with hypercholesterolemia; conditions: human, in vivo, 52 weeks
[3] = system: high cardiovascular risk patients with hypercholesterolemia; assay: ODYSSEY COMBO II: safety (TEAEs, adjudicated CV events, laboratory parameters, low LDL-C)
[4] = safety population at 52 weeks, all patients, number (%) of patients
[5] = treatment period, safety population

## O=C1[C@H](CC[C@H](O)c2ccc(F)cc2)[C@@H](c2ccc(O)cc2)N1c1ccc(F)cc1 [Ezetimibe, ezetimibe, reference compound]
[1]; 24 weeks, FIG. 7
  Achieved LDL-C, median: 70 mg/dL
[1]; ITT, Week 24
  Calculated LDL-C, LS mean (SE) percent change from baseline: −20.7 (1.9) %
  Fasting TGs, LS mean percent change from baseline: −12.8%
[1]; ITT, Week 24, listed as ezetimibe
  Calculated LDL-C, LS mean (SE) percent change from baseline: −20.7%
[1]; Week 4
  Calculated LDL-C percent change from baseline, LS mean (SE): −25.3 (1.6) %
[1]; Week 8
  Calculated LDL-C percent change from baseline, LS mean (SE): −24.3 (1.7) %
[1]; Week 12
  Calculated LDL-C percent change from baseline, LS mean (SE): −21.8 (1.8) %
[1]; Week 16
  Calculated LDL-C percent change from baseline, LS mean (SE): −23.0 (1.8) %
[1]; Week 24
  Fasting TGs reduced from baseline: 13.3%
  Mean achieved LDL-C: 82.5 (2.0) mg/dL
  Calculated LDL-C percent change from baseline, LS mean (SE): −20.7 (1.9) %
[1]; Week 24, On-treatment analysis
  Apo-B - Percent change from baseline to Week 24, LS mean vs. baseline: −19.1 (1.4)
  Calculated LDL-C - Percent change from baseline to Week 24, LS mean vs. baseline: −21.8 (1.8) %
  Non-HDL-C - Percent change from baseline to Week 24, LS mean vs. baseline: −20.2 (1.6)
[1]; Week 24, on-treatment analysis
  HDL-C percent change from baseline to week 24: 0.8 (1.1)
  Lipoprotein(a) percent change from baseline to week 24: −5.6 (1.9)
  Total cholesterol percent change from baseline to week 24: −15.2 (1.2)
  Triglycerides (fasted) percent change from baseline to week 24: −13.3 (2.0)
[1]; Week 36
  Calculated LDL-C percent change from baseline, LS mean (SE): −19.3 (2.0) %
[1]; Week 52
  Calculated LDL-C percent change from baseline, LS mean (SE): −18.3 (2.1) %
[2]
  TEAE preferred term: Influenza: 7 (2.9)
[3]; in vivo
  Adjudicated cardiovascular events: 3.7%
  SOC gastrointestinal disorders: 13.7%
  SOC infections and infestations: 25.3%
  SOC musculoskeletal and connective tissue disorders: 17.0%
  Treatment-emergent local injection site reactions: 0.8%
[3]; mean 58 weeks' follow-up
  Patients who experienced at least one TEAE: 67.2%
  Serious adverse event: 17.8%
  TEAE leading to death: 4 (1.7%) n (%)
  TEAEs leading to treatment discontinuation: 5.4%
[3]; [4]
  Laboratory parameters: Blood glucose increased: 3 (1.2)
  Laboratory parameters: Hemoglobin decreased: 2 (0.8)
  Patients experiencing any TEAE: 162 (67.2)
  TEAE preferred term: Accidental overdose: 16 (6.6)
  TEAE preferred term: Angina pectoris: 11 (4.6)
  TEAE preferred term: Arthralgia: 9 (3.7)
  TEAE preferred term: Dizziness: 13 (5.4)
  TEAE preferred term: Headache: 10 (4.1)
  TEAE preferred term: Hypertension: 10 (4.1)
  TEAE preferred term: Myalgia: 12 (5.0)
  TEAE preferred term: Nasopharyngitis: 9 (3.7)
  TEAE preferred term: Upper respiratory tract infection: 14 (5.8)
  TEAE system organ class: Blood and lymphatic system disorders: 8 (3.3)
  TEAE system organ class: Cardiac disorders: 29 (12.0)
  TEAE system organ class: Eye disorders: 9 (3.7)
  TEAE system organ class: Gastrointestinal disorders: 33 (13.7)
  TEAE system organ class: General disorders and administration site conditions: 26 (10.8)
  TEAE system organ class: Infections and infestations: 61 (25.3)
  TEAE system organ class: Injury, poisoning, and procedural complications: 33 (13.7)
  TEAE system organ class: Investigations: 21 (8.7)
  TEAE system organ class: Metabolism and nutrition disorders: 18 (7.5)
  TEAE system organ class: Musculoskeletal and connective tissue disorders: 41 (17.0)
  TEAE system organ class: Neoplasms, benign, malignant and unspecified (including cysts and polyps): 7 (2.9)
  TEAE system organ class: Nervous system disorders: 40 (16.6)
  TEAE system organ class: Psychiatric disorders: 12 (5.0)
  TEAE system organ class: Renal and urinary disorders: 13 (5.4)
  TEAE system organ class: Reproductive system and breast disorders: 2 (0.8)
  TEAE system organ class: Respiratory, thoracic, and mediastinal disorders: 22 (9.1)
  TEAE system organ class: Skin and subcutaneous tissue disorders: 15 (6.2)
  TEAE system organ class: Vascular disorders: 20 (8.3)
[3]; [5]
  Patients with 2 consecutive calculated LDL-C value <15 mg/dL: 0/230
  Patients with 2 consecutive calculated LDL-C value <25 mg/dL: 0/230
[3]; treatment period, safety population, listed as ezetimibe
  Patients with 2 consecutive calculated LDL-C value <25 mg/dL: none

— patent US20160137746A1, “METHODS FOR TREATING HIGH CARDIOVASCULAR RISK PATIENTS WITH HYPERCHOLESTEROLEMIA” (Sanofi Biotechnology, priority 2014, published 2016)
